Data as given in publication PMC6321117, “Sulfonamide Inhibition Studies of a New β-Carbonic Anhydrase from the Pathogenic Protozoan Entamoeba histolytica” (International Journal of Molecular Sciences, 2018).
Read-outs that look alike come from different tables or passages of the source.

Key:
hCA I = details: human recombinant isozyme, α class, stopped flow CO2 hydrase assay; cited from earlier work
[1] = target: T1, EhiCA (β-carbonic anhydrase) (Entamoeba histolytica, UniProt C4LXK3); test: biochemical
T1 sequence (C4LXK3 1-188): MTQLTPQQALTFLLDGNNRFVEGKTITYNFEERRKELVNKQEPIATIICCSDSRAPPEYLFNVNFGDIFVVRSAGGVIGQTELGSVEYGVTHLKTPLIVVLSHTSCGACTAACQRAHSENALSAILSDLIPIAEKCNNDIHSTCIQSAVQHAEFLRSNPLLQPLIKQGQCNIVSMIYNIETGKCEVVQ
Description: An Sx.18Mv-R Applied Photophysics (Oxford, UK) stopped-flow instrument has been used to assay the catalytic activity of various CA isozymes for CO2 hydration reaction. […] The uncatalyzed rates were determined in the same manner and subtracted from the total observed rates. Stock solutions of inhibitors (0.1 mM) were prepared in distilled-deionized water, and dilutions up to 1 nM were done thereafter with the assay buffer. Enzyme and inhibitor solutions were pre-incubated together for 15 min before assay, to allow for the formation of the enzyme–inhibitor complex. The inhibition constants were obtained by non-linear least-squares methods using PRISM 3 and the Cheng–Prusoff equation, as reported earlier.

Row | Ki [1] [nM] | Compound | Ki (hCA I) [µM] | also measured
1 | – | Cc1ccc(S(N)(=O)=O)cc1 [Compound 4] | 78.5 | –
2 | – | NS(=O)(=O)c1cccc(S(N)(=O)=O)c1 [Compound 3] | 0.079 | –
3 | 6010 | Nc1ccc(S(N)(=O)=O)cc1 [Compound 2] | – | –
4 | – | CC1(C)O[C@@H]2[C@@H](CO[C@@]3(COS(N)(=O)=O)OC(C)(C)O[C@@H]23)O1 [TPM, topiramate] | – | Ki ([1]; KI EhiCA, β class, stopped-flow CO2 hydrase assay, 3 different assays, errors 5–10%): 3100 nM
5 | – | O=C1NS(=O)(=O)c2ccccc21 [SAC, saccharin] | 18.5 | –
6 | 790 | NS(=O)(=O)c1cc(Cl)c(Cl)c(S(N)(=O)=O)c1 [DCP, dichlorophenamide] | – | –
7 | 383 | NS(=O)(=O)c1ccc(C(=O)O)cc1 [Compound 18, 4-carboxy-benzenesulfonamide] | – | –
